Data published in PMC5428509, “Irreversible inhibition of BTK kinase by a novel highly selective inhibitor CHMFL-BTK-11 suppresses inflammatory response in rheumatoid arthritis model” (Scientific Reports, 2017).

Legend:
Assay in all cases: biochemical
Design in all cases: KinomeScan competition binding panel (DiscoveRx), percent of control at 1 uM
Details in all cases: read-out: Percent Control
ANKK1 = ANKK1 (Homo sapiens, UniProt Q8NFD2)
Outline: (§1)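 KinomeScan technology used to profile binding across a panel of 456 kinases and mutants.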

EPHA4 = EPHA4 (Homo sapiens, UniProt P54764)
Outline: as §1

BMPR1A = BMPR1A (Homo sapiens, UniProt P36894)
Outline: as §1

PIK3CG = PIK3CG (Homo sapiens, UniProt P48736)
Outline: as §1

ABL2 = ABL2 (Homo sapiens, UniProt P42684)
Outline: as §1

MAP3K15 = MAP3K15 (Homo sapiens, UniProt Q6ZN16)
Outline: as §1

[1] = molecular target: T1, RSK2(Kin.Dom.2-C-terminal) (Homo sapiens, UniProt P51812)
T1 construct: gene RPS6KA3; Kin.Dom.2-C-terminal
Outline: as §1

MTOR = MTOR (Homo sapiens, UniProt P42345)
Outline: as §1

FGR = FGR (Homo sapiens, UniProt P09769)
Outline: as §1

PRKR = molecular target: T2, PRKR (Homo sapiens, UniProt P19525)
T2 construct: gene EIF2AK2
Outline: as §1

TAK1 = molecular target: T3, TAK1 (Homo sapiens, UniProt O43318)
T3 construct: gene MAP3K7
Outline: as §1

AKT1 = AKT1 (Homo sapiens, UniProt P31749)
Outline: as §1

EGFR(L747-T751del,Sins) = EGFR(L747-T751del,Sins) (Homo sapiens, UniProt P00533, DEL747-750/T751S)
Outline: as §1

MAP3K2 = MAP3K2 (Homo sapiens, UniProt Q9Y2U5)
Outline: as §1

PAK4 = PAK4 (Homo sapiens, UniProt O96013)
Outline: as §1

OSR1 = molecular target: T4, OSR1 (Homo sapiens, UniProt O95747)
T4 construct: gene OXSR1
Outline: as §1

ADCK3 = molecular target: T5, ADCK3 (Homo sapiens, UniProt Q8NI60)
T5 construct: gene COQ8A
Outline: as §1

PIK3C2B = PIK3C2B (Homo sapiens, UniProt O00750)
Outline: as §1

GRK1 = GRK1 (Homo sapiens, UniProt Q15835)
Outline: as §1

QSK = molecular target: T6, QSK (Homo sapiens, UniProt Q9Y2K2)
T6 construct: gene SIK3
Outline: as §1

IKK-beta = molecular target: T7, IKK-beta (Homo sapiens, UniProt O14920)
T7 construct: gene IKBKB
Outline: as §1

BMPR1B = BMPR1B (Homo sapiens, UniProt O00238)
Outline: as §1

SRC = SRC (Homo sapiens, UniProt P12931)
Outline: as §1

PIM1 = PIM1 (Homo sapiens, UniProt P11309)
Outline: as §1

EPHB1 = EPHB1 (Homo sapiens, UniProt P54762)
Outline: as §1

T2 sequence (P19525 whole entry): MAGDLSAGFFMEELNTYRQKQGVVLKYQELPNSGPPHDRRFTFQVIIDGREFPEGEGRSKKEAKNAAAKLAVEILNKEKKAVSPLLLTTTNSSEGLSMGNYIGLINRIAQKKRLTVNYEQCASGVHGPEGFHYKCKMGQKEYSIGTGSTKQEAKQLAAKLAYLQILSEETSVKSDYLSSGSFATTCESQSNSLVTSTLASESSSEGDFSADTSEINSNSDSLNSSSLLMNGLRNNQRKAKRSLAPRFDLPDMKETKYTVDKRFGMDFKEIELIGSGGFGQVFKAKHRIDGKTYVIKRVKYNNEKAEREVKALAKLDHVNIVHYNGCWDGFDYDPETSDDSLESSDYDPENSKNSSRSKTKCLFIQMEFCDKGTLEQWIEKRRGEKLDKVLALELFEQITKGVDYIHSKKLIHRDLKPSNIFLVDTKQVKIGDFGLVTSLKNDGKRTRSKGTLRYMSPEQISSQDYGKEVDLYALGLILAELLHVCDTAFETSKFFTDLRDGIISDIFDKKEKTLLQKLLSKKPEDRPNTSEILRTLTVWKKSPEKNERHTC
Sequence of PIK3CG (P48736 whole entry): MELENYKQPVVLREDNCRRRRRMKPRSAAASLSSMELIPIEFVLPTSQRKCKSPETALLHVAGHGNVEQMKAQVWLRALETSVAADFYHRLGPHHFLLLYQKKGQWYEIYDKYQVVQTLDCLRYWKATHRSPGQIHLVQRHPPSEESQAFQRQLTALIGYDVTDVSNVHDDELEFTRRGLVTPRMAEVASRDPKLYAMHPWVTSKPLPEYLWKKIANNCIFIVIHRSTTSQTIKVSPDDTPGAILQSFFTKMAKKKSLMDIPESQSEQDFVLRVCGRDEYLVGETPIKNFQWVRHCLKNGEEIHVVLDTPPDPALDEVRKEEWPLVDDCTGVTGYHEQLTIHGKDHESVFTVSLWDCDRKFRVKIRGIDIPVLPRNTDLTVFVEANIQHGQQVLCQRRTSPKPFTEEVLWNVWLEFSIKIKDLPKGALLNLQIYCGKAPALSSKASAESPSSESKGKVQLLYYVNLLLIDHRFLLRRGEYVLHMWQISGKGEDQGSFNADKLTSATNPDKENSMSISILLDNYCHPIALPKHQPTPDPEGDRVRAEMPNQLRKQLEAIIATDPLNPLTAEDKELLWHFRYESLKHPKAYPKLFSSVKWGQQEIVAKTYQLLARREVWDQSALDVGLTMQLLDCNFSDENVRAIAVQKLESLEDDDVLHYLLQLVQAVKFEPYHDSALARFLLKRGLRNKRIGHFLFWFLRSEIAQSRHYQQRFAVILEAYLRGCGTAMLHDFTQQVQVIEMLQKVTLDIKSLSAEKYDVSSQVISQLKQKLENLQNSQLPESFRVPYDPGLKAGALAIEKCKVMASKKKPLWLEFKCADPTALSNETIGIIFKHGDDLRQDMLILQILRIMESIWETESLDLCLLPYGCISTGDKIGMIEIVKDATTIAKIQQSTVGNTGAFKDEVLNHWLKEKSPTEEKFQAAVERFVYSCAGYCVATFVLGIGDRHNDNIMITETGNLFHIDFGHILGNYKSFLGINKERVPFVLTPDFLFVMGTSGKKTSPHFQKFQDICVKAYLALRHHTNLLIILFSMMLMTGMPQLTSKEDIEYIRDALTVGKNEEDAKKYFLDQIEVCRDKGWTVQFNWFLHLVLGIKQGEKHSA
Sequence of PIK3C2B (O00750 whole entry): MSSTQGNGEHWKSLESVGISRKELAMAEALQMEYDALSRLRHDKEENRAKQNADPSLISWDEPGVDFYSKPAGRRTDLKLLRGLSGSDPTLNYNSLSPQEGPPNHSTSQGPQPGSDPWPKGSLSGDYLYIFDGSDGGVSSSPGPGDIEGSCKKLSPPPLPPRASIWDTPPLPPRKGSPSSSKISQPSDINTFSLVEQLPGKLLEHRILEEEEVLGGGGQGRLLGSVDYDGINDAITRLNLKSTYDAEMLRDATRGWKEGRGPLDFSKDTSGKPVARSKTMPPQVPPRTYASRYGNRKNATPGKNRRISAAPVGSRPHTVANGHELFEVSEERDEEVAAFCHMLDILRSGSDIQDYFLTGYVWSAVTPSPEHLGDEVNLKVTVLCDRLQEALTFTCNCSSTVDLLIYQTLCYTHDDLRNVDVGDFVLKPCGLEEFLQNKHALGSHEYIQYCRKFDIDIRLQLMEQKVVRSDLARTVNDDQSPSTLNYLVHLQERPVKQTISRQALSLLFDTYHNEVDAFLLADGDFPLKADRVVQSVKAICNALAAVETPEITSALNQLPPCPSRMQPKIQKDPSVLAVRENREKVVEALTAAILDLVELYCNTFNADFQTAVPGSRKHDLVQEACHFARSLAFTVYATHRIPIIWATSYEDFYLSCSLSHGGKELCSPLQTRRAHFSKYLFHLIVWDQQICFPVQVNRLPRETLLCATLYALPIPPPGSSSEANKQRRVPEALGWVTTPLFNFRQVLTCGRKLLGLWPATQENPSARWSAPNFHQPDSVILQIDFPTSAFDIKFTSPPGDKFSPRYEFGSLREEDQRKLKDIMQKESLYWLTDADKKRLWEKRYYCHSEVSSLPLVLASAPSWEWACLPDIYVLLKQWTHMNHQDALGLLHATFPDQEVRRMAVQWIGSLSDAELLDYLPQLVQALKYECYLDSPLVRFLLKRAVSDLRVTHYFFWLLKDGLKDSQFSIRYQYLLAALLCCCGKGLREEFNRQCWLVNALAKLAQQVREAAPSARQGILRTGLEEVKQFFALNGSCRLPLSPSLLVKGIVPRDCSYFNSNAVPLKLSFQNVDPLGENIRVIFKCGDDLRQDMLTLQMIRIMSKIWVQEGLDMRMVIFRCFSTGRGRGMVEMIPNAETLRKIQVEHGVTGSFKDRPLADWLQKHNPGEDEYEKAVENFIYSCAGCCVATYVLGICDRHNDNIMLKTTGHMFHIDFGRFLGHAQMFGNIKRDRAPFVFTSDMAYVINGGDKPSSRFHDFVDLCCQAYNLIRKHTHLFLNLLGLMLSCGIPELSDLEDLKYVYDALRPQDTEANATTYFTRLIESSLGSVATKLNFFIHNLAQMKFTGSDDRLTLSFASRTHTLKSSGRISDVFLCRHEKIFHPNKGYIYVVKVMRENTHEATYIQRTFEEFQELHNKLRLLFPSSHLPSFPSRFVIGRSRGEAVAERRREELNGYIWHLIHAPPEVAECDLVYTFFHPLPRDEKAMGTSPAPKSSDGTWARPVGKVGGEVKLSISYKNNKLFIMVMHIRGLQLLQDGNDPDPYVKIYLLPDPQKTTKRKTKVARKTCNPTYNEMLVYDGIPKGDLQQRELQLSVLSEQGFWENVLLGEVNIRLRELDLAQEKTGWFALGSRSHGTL
Sequence of ABL2 (P42684 whole entry): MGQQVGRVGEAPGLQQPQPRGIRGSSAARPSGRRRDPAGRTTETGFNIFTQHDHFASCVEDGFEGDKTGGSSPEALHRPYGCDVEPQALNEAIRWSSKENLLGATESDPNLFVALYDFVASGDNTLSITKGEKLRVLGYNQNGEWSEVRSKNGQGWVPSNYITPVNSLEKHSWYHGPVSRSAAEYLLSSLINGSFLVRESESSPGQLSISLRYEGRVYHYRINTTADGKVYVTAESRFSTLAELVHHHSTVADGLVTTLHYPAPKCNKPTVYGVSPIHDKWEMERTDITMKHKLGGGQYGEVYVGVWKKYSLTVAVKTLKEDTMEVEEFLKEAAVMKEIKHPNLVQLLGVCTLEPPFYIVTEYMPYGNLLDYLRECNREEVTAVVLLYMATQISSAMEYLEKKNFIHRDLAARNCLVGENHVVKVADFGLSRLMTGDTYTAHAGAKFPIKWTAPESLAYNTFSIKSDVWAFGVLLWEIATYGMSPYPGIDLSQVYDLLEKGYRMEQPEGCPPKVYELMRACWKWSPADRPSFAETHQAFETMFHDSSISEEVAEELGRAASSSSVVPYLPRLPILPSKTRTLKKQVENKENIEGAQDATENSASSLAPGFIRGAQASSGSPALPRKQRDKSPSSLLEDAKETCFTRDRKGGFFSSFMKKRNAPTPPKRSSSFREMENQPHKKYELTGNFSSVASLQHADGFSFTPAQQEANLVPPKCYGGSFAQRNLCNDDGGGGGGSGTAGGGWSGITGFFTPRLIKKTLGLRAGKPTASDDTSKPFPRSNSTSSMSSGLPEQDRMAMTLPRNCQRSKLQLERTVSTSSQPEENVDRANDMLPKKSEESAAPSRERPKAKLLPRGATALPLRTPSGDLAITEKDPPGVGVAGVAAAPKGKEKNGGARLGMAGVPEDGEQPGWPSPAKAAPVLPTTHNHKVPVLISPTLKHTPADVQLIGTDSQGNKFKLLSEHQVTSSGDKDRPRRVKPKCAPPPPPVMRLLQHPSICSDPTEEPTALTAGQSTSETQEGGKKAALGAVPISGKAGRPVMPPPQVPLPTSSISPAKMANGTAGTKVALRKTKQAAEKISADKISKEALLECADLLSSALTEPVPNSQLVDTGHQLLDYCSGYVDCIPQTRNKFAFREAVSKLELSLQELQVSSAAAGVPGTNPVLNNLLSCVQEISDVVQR
Sequence of SRC (P12931 whole entry): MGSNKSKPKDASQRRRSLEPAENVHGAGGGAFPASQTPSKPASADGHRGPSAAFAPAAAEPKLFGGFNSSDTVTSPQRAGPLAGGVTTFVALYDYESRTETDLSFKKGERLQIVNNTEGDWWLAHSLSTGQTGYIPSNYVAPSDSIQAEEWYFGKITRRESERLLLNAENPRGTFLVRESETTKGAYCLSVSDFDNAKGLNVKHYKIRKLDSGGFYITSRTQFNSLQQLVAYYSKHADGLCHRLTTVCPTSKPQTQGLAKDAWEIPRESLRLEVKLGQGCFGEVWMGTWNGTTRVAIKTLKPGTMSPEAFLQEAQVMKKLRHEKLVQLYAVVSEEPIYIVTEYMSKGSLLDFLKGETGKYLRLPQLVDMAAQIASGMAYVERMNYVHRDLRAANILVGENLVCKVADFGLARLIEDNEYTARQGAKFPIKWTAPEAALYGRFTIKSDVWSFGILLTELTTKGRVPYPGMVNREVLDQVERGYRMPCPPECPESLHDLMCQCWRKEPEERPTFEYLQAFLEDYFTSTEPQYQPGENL

## C=CC(=O)Nc1cc(-n2c(=O)ccc3cnc4ccc(-n5cccn5)cc4c32)ccc1C [CHMFL-BTK-11]
ANKK1
  remaining binding at 1 µM: 81%
EPHA4
  remaining binding at 1 µM: 100%
BMPR1A
  remaining binding at 1 µM: 100%
PIK3CG
  remaining binding at 1 µM: 73%
ABL2
  remaining binding at 1 µM: 100%
MAP3K15
  remaining binding at 1 µM: 80%
[1]
  remaining binding at 1 µM: 100%
MTOR
  remaining binding at 1 µM: 62%
FGR
  remaining binding at 1 µM: 100%
PRKR
  remaining binding at 1 µM: 80%
TAK1
  remaining binding at 1 µM: 98%
AKT1
  remaining binding at 1 µM: 96%
EGFR(L747-T751del,Sins)
  remaining binding at 1 µM: 77%
MAP3K2
  remaining binding at 1 µM: 99%
PAK4
  remaining binding at 1 µM: 95%
OSR1
  remaining binding at 1 µM: 96%
ADCK3
  remaining binding at 1 µM: 96%
PIK3C2B
  remaining binding at 1 µM: 100%
GRK1
  remaining binding at 1 µM: 71%
QSK
  remaining binding at 1 µM: 92%
IKK-beta
  remaining binding at 1 µM: 86%
BMPR1B
  remaining binding at 1 µM: 97%
SRC
  remaining binding at 1 µM: 98%
PIM1
  remaining binding at 1 µM: 82%
EPHB1
  remaining binding at 1 µM: 100%
